This is an account of results in publication PMC7137270, “Determination of parecoxib and valdecoxib in rat plasma by UPLC-MS/MS and its application to pharmacokinetics studies” (BMC Pharmacology & Toxicology, 2020).

A short description of data set [1]: Stability of analytes in rat plasma (short-term, long-term, freeze/thaw). The settings on record: n = 6; for Freeze/thaw (−20 °C to room temperature) RE: three cycles. It is filed as in vitro ADME. How it is done:
The stability of the samples (including QC and IS) in rat plasma was determined by placing samples (n = 6) in three settings. Of those settings, the short-term stability was determined via leaving the samples at room temperature for 24 h. For long-term stability evaluation, the samples went through 3 weeks of storage at − 20 °C before measurement. The stability of samples after freeze-thaw treatment was assessed by performing freeze/thaw cycles on each sample three times prior to analysis. The fresh samples were prepared as a negative control. The acceptable bias was considered great stability when it was within ±15%. […]

Data set [2] is described as follows: Pharmacokinetic study in rats after sublingual vein administration of parecoxib. It is filed as in vivo. To be noted: male, Sprague Dawley, rat plasma, sublingual vein administration of 5 mg/kg PCX, n = 6; for MRT last: read-out: MRT(0-t); for MRT inf: read-out: MRT(0-∞). The method, then: The average weight range of 200–220 g male Sprague Dawley (SD) was obtained from the laboratory animal center of the Wenzhou Medical University (Wenzhou, China, License No. SCXK [ZJ] 2005–0019). Rats stayed in cages and freely got food and water under a stable temperature range of 24–26 °C and a controllable 12 h light/dark cycle apparatus. Animal protocols were approved by the Institutional animal experimentation Committee of the Wenzhou Medical University. A total of 12 SD rats were separated into two isolated groups, including the experimental group (n = 6) and the control group (n = 6). Fasting was carried out for 12 h before assays, and only water was freely accessible. The rats were treated with […] PCX intravenously, which was equivalent to 56 mg for an individual of 70 kg human body weight (regular range in the clinic is from 40 to 80 mg). 0.3 ml of blood samples were collected and stabilized in heparinized tubes at each given time point (0, 0.083, 0.167, 0.25, 0.5, 0.75, 1, 2, 3, 4, 6, 8, 10, 12 and 24 h). The plasma samples were separated through centrifugation at 3000 r/min for 10 min and carefully collected the supernatant and stored at − 20 °C before analysis. All pharmacokinetic data were analyzed by the DAS (Drug and Statistics) software. All rats were sacrificed by CO2 inhalation.
In the clinic, the recommended dose of PCX was 40 mg per patient, i.m. or i.v., and the total daily dose was not more than 80 mg. In the present study, a dose of 5 mg/kg PCX was injected to rats by i.v., which was equivalent to 56 mg for an individual of 70 kg body weight (range of 40–80 mg). The UPLC-MS/MS has effectively monitored the pharmacokinetic changes after administration of […] PCX. Further, the pharmacokinetic parameters were figured out by using the DAS 3.0 software.

On the set-up of data set [3]: method as in PMID 29843006. To be noted: cited from earlier work.
For data set [4], the system named is plasma proteins. The settings on record: cited from earlier work.
On the set-up of data set [5]: method as in PMID 11519767. To be noted: control of acute pain, specific dose of PCX; cited from earlier work.

Each structure is given as a SMILES string.

Take `Cc1ccc(-c2cc(C(F)(F)F)nn2-c2ccc(S(N)(=O)=O)cc2)cc1` [Celecoxib]: in data set [1] (200 ng/mL), the “Long-term (−20 °C, 3 weeks) RE” value was −1.3%; the “Short-term (room temperature, 24 h) RE” value is listed as 7.5%; the “Freeze/thaw (−20 °C to room temperature) RE” value (shortened to “Freeze/thaw”) worked out at 5.8%.

In general, AUC(0-inf) refers to total exposure, with the tail of the curve extrapolated. A higher AUC(0-inf) goes with more exposure. For orientation: AUC(0-t) means the area under the concentration-time curve up to a stated or last time point. Low readings indicate less exposure, high ones more exposure. The Cmax is the maximum level reached in the sampled fluid or tissue. A word on the Tmax: it is the time at which the peak concentration occurs. The clearance is a measure of how efficiently the substance is removed, as volume per time. A word on the half-life: it is how long it takes for the measured level to halve. A high value points to slow decline. As to `Cc1onc(-c2ccccc2)c1-c1ccc(S(N)(=O)=O)cc1` [Valdecoxib], in data set [2], the AUC(0-inf) is 4370 ± 1530 ng·h/mL, the AUC(0-t) came to 4190 ± 1590 ng·h/mL, the Cmax came to 701 ± 92.6 ng/mL and the Tmax came out at 0.8 ± 0.2 h. Further, in data set [2], the clearance is 20 mL/min/kg, the half-life is 3.1 ± 1.1 h, the MRT last was found to be 4.1 ± 1 h and the MRT inf amounted to 4.8 ± 1.1 h. In data set [1] (5 ng/mL), the “Long-term (−20 °C, 3 weeks) RE” value was −1.4%; the “Short-term (room temperature, 24 h) RE” value is reported as −6.7%; the “Freeze/thaw” value turned out to be 5.2%. In data set [1] (40 ng/mL), the “Long-term (−20 °C, 3 weeks) RE” value was found to be 13.2%; the “Short-term (room temperature, 24 h) RE” value turned out to be 12%; the “Freeze/thaw” value is listed as 14.2%. Moreover, in data set [1] (400 ng/mL), the “Long-term (−20 °C, 3 weeks) RE” value was 3.2%; the “Short-term (room temperature, 24 h) RE” value is recorded as 3.2%; the “Freeze/thaw” value amounted to 9.5%. In data set [3], the “fraction of VCX in the circulation metabolized to hydroxylated VCX” value is “approximately 10%”. Besides, the “bound to plasma proteins” value in data set [4] is given as 98%.

Consider `CCC(=O)NS(=O)(=O)c1ccc(-c2c(-c3ccccc3)noc2C)cc1` [Parecoxib], for which, in data set [2], the AUC(0-inf) stood at 2110 ± 283 ng·h/mL, the AUC(0-t) amounted to 2110 ± 282 ng·h/mL, the concentration peaked (Cmax) at 5070 ± 1210 ng/mL and the Tmax is 0.1 h. In addition, in data set [2], the clearance was 40 mL/min/kg, the half-life is 1.4 ± 0.5 h, the MRT last was 0.4 ± 0.1 h and the MRT inf is 0.4 ± 0.1 h. Also, in data set [1] (100 ng/mL), the “Long-term (−20 °C, 3 weeks) RE” value is 14.2%; the “Short-term (room temperature, 24 h) RE” value stood at 13.0%; the “Freeze/thaw” value came out at 14.9%. In addition, in data set [1] (800 ng/mL), the “Long-term (−20 °C, 3 weeks) RE” value is on record as 12.7%; the “Short-term (room temperature, 24 h) RE” value is recorded as 10.2%; the “Freeze/thaw” value is listed as 14.2%. Moreover, in data set [1] (8000 ng/mL), the “Long-term (−20 °C, 3 weeks) RE” value amounted to 14.3%; the “Short-term (room temperature, 24 h) RE” value was −10.5%; the “Freeze/thaw” value is recorded as −7.9%. In data set [5], the onset of analgesia is 7 to 14 min and the “time to peak analgesic effect” value was no more than 2 h.
